Data taken from patent EP4527843A1, “STEREOISOMERIC PHOSPHATIDYLOLIGOGLYCEROL” (Thermosome GmbH, priority 2023, dated 2025).
Like-named read-outs stand apart in the source and are kept apart here.

Columns and labels:
Phospholipase A2 = molecular target: T1, Phospholipase A2 (Sus scrofa, UniProt P00592); assay: Stereospecific cleavage of DPPG2 with Phospholipase A2 (HPLC/CAD); type: in vitro ADME, porcine; conditions: 0.5 U enzyme; for DPPG2 still detectable in the sample: after 10 min, 2 µmol lipid, Tris-buffer pH 8.5 with CaCl2, 37°C, normalized to t=0 min
T1 construct: commercially available enzyme (extracted from porcine pancreas) was used; purchased; host or cells: porcine pancreas (tissue extract)
T1 sequence (P00592 23-146): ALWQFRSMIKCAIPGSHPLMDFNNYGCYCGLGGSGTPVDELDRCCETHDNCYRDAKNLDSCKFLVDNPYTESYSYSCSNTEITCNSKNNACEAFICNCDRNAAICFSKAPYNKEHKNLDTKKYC
Method: Phospholipases are enzymes that selectively cleave bonds in glycerophospholipids based on their stereochemistry. They play a role in the metabolization of glycerophospholipids in vivo. Phospholipase A2 hydrolyzes 1,2-acyl-sn-glycero-3-phospholipids to their 1-acyl-sn-glycero-3-phospholipid and the corresponding fatty acid. For the experiments, commercially available enzyme (extracted from porcine pancreas) was used. Lipid samples (2 µmol) were dissolved 1.5 wt% deoxycholate and subsequently incubated in Tris-buffer pH 8.5 supplemented with CaCl2 together with 0.5 U enzyme in a thermoshaker at 37°C. At distinct time points, samples were taken and cleavage was analyzed by HPLC. […] The analytes are separated using a gradient elution using 100 mM NH4Ac pH 6.0 in water and methanol as eluent A and eluent B, respectively. Column oven was set to 35°C.
Three DPPG2 batches differing in configurations of the stereogenic centers in their diglycerol headgroup were tested and DPPC was applied as control glycerophospholipid (Figure 2). […] After 10 min, 14.8%, 20.4%, and 24.3% of DPPG2 according to WO 9730058, WO 2014/202680 A1, and Formula III, respectively, was still detectable in the sample.

[1] = PK study in healthy rats after i.v. bolus, normothermia; type: in vivo, Brown Norway rats; conditions: 2 mg/kg DOX i.v. bolus, rat; result in words
Method: For the PK study, 18 anaesthetized healthy male Brown Norway rats (-300 g) received a dose of 2 mg/kg DOX of either non-liposomal DOX (n = 6), DPPG2-TSL-DOX (DPPG2 according to formula III) (n = 6), or DPPG2-TSL-DOX (DPPG2 according to WO 97/30059) (n = 6) as i.v. bolus injection, respectively. Body temperature of the animals was controlled via a rectal temperature probe. During anesthesia, the body temperature of animals was maintained by a water bath (37°C). Blood samples were taken at defined time points. DOX and DPPG2 content were measured in plasma by HPLC equipped with a fluorescence detector and LC/MS, respectively.

[2] = test system: BN175 tumor (soft tissue sarcoma); conditions: 2 mg/kg DOX single i.v. bolus in combination with 60 min lamp HT (41°C); ranking in words
Method: Finally, the therapeutic efficacy of both DPPG2-TSL-DOX formulations was investigated in vivo and compared to selected clinically relevant DOX formulations (e.g., non-liposomal DOX, Caelyx). […] All animals had one BN175 tumor (soft tissue sarcoma) s.c. implanted to one hind leg. Local HT treatment was performed with a light source. Target temperature was 41 °C. Animals were preheated to this temperature for 30 min and temperature was maintained at 41 °C for 60 min after i.v. bolus injection. Animals treated with a DOX formulation received 2 mg/kg DOX as single i.v. bolus injection after one tumor diameter was > 5 mm. After the end of the treatment, animals were placed back into a cage and tumor growth was monitored every 2nd day until reaching an end point (e.g., tumor diameter > 3 cm, exulzeration, bleeding, skin toxicity).

[3] = Accumulation of DOX in tumor tissue and organs, rat BN175 sarcoma model; type: in vivo, Brown Norway rats; conditions: male, Brown Norway, rat, 60 min after i.v. bolus 2 mg/kg DOX
Method: (§1) Eighteen anaesthetized tumor-bearing male Brown Norway rats (-300 g) received a dose of 2 mg/kg DOX of either non-liposomal DOX (n = 6), DPPG2-TSL-DOX (DPPG2 according to formula III) (n = 6), or DPPG2-TSL-DOX (DPPG2 according to WO 97/30059) (n = 6) as i.v. bolus injection, respectively. All animals had two BN175 tumors (soft tissue sarcoma) subcutaneously implanted to each hind leg, respectively. One tumor received 60 min of a local HT treatment with a light source of 41.5°C, whereas the second tumor remained untreated (room temperature, NT). […] Animals were sacrificed after 60 min, organs were perfused, and tumors and organs were collected. DOX content was measured in plasma by HPLC equipped with a fluorescence detector.

[4] = test system: BN175 tumors (soft tissue sarcoma); assay: as above; type: in vivo, Brown Norway rats
Method: as §1

Q: For `CCCCCCCCCCCCCCCC(=O)OC[C@H](COP(=O)(O)OC[C@@H](O)COCC(O)CO)OC(=O)CCCCCCCCCCCCCCC` (stereo partly shown) [DPPG2 according to WO 2014/202680 A1, 1,2-Dipalmitoyl-sn-glycero-3-phospho-sn-1'-diglycerol], which “DPPG2 still detectable in the sample” value (Phospholipase A2) is on record?
A: 20.4%

Q: Which DOX plasma clearance [1] does the source give for `COc1cccc2c1C(=O)c1c(O)c3c(c(O)c1C2=O)C[C@@](O)(C(=O)CO)C[C@@H]3O[C@H]1C[C@H](N)[C@H](O)[C@H](C)O1` [non-liposomal DOX, doxorubicin] here?
A: cleared within minutes

Q: What about the “survival (Kaplan-Meier, 5-fold increase in tumor volume) / therapeutic efficacy” value [2] of the same compound?
A: comparable

Q: What about the concentration at 60 min ([3]; heated BN175 tumor (HT 41.5°C), iv, HT 41.5°C, read-out: DOX concentration in the heated tumors) of the same compound?
A: 3100 ± 500 ng/g

Q: And the concentration at 60 min ([3]; untreated BN175 tumor (NT, iv), NT, room temperature, read-out: DOX concentration in the untreated tumors)?
A: 1900 ± 300 ng/g

Q: And the “DOX accumulation in lung and heart compared to both DPPG2-TSL-DOX formulations” value ([4]; 60 min after i.v. bolus 2 mg/kg DOX, result in words)?
A: significantly higher

Q: What about the “increase of DOX tumor accumulation by HT application (compared to the content in the untreated tumors)” value ([4]; 60 min local HT 41.5°C light source vs untreated tumor, 2 mg/kg DOX i.v.) of the same compound?
A: 1.6 fold

Q: For `CCCCCCCCCCCCCCCC(=O)OC[C@H](COP(=O)([O-])OCC[N+](C)(C)C)OC(=O)CCCCCCCCCCCCCCC` [DPPC, 1,2-dipalmitoyl-sn-glycero-3-phosphocholine], which “cleavage by phospholipase A2 compared with DPPG2” value (Phospholipase A2; control glycerophospholipid, 37°C) is on record?
A: cleaved notably slower than DPPG2

Q: With `CCCCCCCCCCCCCCCC(=O)OC[C@H](COP(=O)(O)OCC(O)COCC(O)CO)OC(=O)CCCCCCCCCCCCCCC` (mixture of isomers) [DPPG2 according to WO 9730058, 1,2-Dipalmitoyl-sn-glycero-3-phospho-rac-diglycerol] as the compound, how does the “DPPG2 still detectable in the sample” value (Phospholipase A2) read?
A: 14.8%

Q: For `CCCCCCCCCCCCCCCC(=O)OC[C@H](COP(=O)(O)OC[C@@H](O)COC[C@H](O)CO)OC(=O)CCCCCCCCCCCCCCC` [DPPG2 according to Formula III, 1,2-dipalmitoyl-sn-glycero-3-phospho-sn-1'-glycero-sn-3"-glycerol], which “DPPG2 still detectable in the sample” value (Phospholipase A2) is on record?
A: 24.3%
